Results on 13 molecules are retold here after patent US6416737B1, “Increasing bone strength with selected bisphosphonates” (Board of Trustees of the University of Arkansas, priority 1998, dated 2002).

Marks after values point to notes of the source that are not given here. Ends that are not written are not given here.

Test [1] concerns MLO-Y4 cells stably transduced with GFP. Description: Apoptosis by nuclear morphology of MLO-Y4 cells transduced with nuclear GFP. The test is classed as cell-based, murine. The following applies: absence of dexamethasone; 10^−7 M. The method, then:
Supernatants containing retroviral particles were collected 24-48 h after transfection, and used immediately to infect cell cultures. […] Subsequently, cells were exposed to the supernatants containing the viral particles once more before being trypsinized and plated at low density.
Cells presenting brown nuclear staining were considered positive. More than 500 cells per condition were analyzed. […] At least 100 cells per condition were counted.

A further test has as its system MLO-Y4 osteocytic cells. The following applies: for inhibition of glucocorticoid-induced apoptosis: 1 h pretreatment, then dexamethasone 10^−6 M for 6 h; for effect on the prevention of MLO-Y4 cell apoptosis by sCT / effect on the anti-apoptotic effect of alendronate, IG-9402 and etidronate: inhibitor 30 min, 10^−6 M dexamethasone 6 h; for effect on the prevention of MLO-Y4 cell apoptosis by sCT: 5 ng/ml sCT 1 h; for effect on the anti-apoptotic effect of alendronate, IG-9402 and etidronate: 10^−7 M bisphosphonate 1 h; for percentage of cells stained with trypan blue (induction of apoptosis): MLO-Y4, 6 h, dexamethasone 10^−6 M, etoposide 50 μg/ml, TNF-α 1 nM. The method, then:
The murine long bone-derived osteocytic cell line MLO-Y4 was provided by Dr. Lynda Bonewald (University of Texas Health Center at San Antonio, Tex.). Cells were cultured in phenol red-free αMEM supplemented with 5% FBS, 5% bovine calf serum, 100 U/ml penicillin and 100 μg/ml streptomycin. Cells were plated at 1-2×10^4 cells/cm^2 on collagen type I coated plates, as described previously (Kato, et al., 1997. J. Bone Miner. Res. 12:2014-2023). Murine calvaria cells were obtained from neonatal (3- to 6-day old) C57BL/6J mice by controlled digestion with collagenase, as previously described (Bellido, et al., 1997. Endocrinology 138:3666-3676). After isolation, cells were cultured in 10% FBS at 1-2×10^4 cells/cm^2 until 90-95% confluence. Subsequently, cells were harvested and frozen for later use. UMR-106-06 cells were cultured in phenol red-free MEM supplemented with 10% FBS, 1% non-essential aminoacids, 100 U/ml penicillin, and 100 μg/ml streptomycin (Sakagami, et al., Manolagas. 1993. J. Bone Miner. Res. 8:811-816).
Nonadherent cells were combined with adherent cells released from the culture dish using trypsin-EDTA, resuspended in medium containing serum, and collected by centrifugation. […] At least 100 cells per condition were counted.
(§1) MLO-Y4 osteocytic cells and calvaria osteoblastic cells were treated for 1 hour in the absence or presence of different BPs or sCT. Subsequently, dexamethasone, etoposide or TNF-α were added to obtain final concentrations of 10^−6 M, […], or 1 nM, respectively, and cells were incubated for additional 6 h. The effect of PD98059 (50 μM) or UO126 (1 μM) was evaluated by pretreating the cells with the inhibitors for 30 min before adding the BPs or sCT. In the experiment using the membrane permeable caspase inhibitor DEVD, cells were cultured for 1 hour with 50 nM DEVD-CHO and subsequently the pro-apoptotic agents were added to reach the final concentrations indicated above. […] At least 500 cells from fields selected by systematic random sampling were examined for each experimental condition. […] The TUNEL reaction was performed according to the manufacturer's instructions, using 0.15% CuSO4 for color enhancement. Negative controls were made by omitting the transferase from the reaction. Cells presenting brown nuclear staining were considered positive. More than 500 cells per condition were analyzed. Apoptosis of parental MLO-Y4 or calvaria cells was quantified by trypan blue staining (Jilka, et al., 1998. J. Bone Miner. Res. 13:793-802). Nonadherent cells were combined with adherent cells released from the culture dish using trypsin-EDTA, resuspended in medium containing serum, and collected by centrifugation. […] At least 100 cells per condition were counted.
MLO-Y4 cells were incubated for 1 h in vehicle or 50 nM DEVD-CHO. Subsequently, etoposide, TNF-α, or dexamethasone (Dex) were added at final concentrations of 50 μg/ml, 1 nM, or 10^−6 M, respectively, and cells were incubated for additional 6 h. Dead cells were enumerated by trypan blue uptake.
The percentage of dead cells was determined by trypan blue uptake, as in Methods and Materials. Bars represent the mean ±S.D. of three independent measurements.
Subsequently, etoposide, TNF-α, or dexarnethasone were added to reach final concentrations of 50 μg/ml, 1 nM, or 10^−6 M, respectively, and cells were cultured for 6 h, as in FIG. 1. The percentage of dead cells was determined by trypan blue uptake. Bars represent the mean ±S.D. of three independent measurements. Data were analyzed by two-way ANOVA.

Another test has as its system osteoclast. The following applies: cited from earlier work.
The test system of another test is ERK1/2. Description: ERK1/2 phosphorylation in MLO-Y4 cells by Western blot. In kind it is cell-based, murine. The following applies: 50 μM PD98059 or 1 μM UO126 pretreatment; 10^−7 M bisphosphonate 2 min. The method, then:
Monolayers were washed with cold 20 mM Tris-HCl (pH 7.5), 150 mM NaCl, 1 mM sodium orthovanadate and lysed in the lysis buffer mentioned above. Insoluble material was pelleted in a microcentrifuge at 14,000×rpm for 10 mn. […] Proteins (10 μg) were separated on 7.5% SDS-polyacrylamide gels and electrotransferred to a polyvinylidene difluoride membrane. Immunoblotting was performed using a mouse monoclonal antibody recognizing tyrosine phosphorylated ERK1/2, or a rabbit polyclonal antibody recognizing total ERK1/2, followed by incubation with either an antimouse or an antirabbit antibody conjugated with horseradish peroxidase. Blots were developed using Chemiluminescence according to the manufacturer's recommendations. Quantitation of the intensity of the bands in the autoradiograms was performed using a scanner (Microtek Lab., Redondo Beach, Calif.).
For orientation: In western blotting, separated proteins are transferred to a membrane and probed.

Another test relates to osteocytic MLO-Y4 cells. Kind of test: TUNEL reaction in MLO-Y4 cells. The test is classed as cell-based, murine. The following applies: 10^−7 M alendronate 1 h and/or 10^−6 M dexamethasone 6 h. The method, then:
as §1

The subject of test [2] is osteoblastic cells and osteocytic cells. Kind of test: Anti-apoptotic effects of estrogens on osteoblastic and osteocytic cells in vitro. The test is classed as cell-based.
Test [3] concerns osteoblastic cells derived from murine calvaria. Kind of test: Apoptosis of osteoblastic cells derived from murine calvaria by trypan blue uptake. In kind it is cell-based. The following applies: etoposide 50 μg/ml, TNF-α, dexamethasone 10^−6 M; 6 h.
In test [4] the test system is osteocyte and osteoblast apoptosis in murine vertebral cancellous bone. Kind of test: Murine model of glucocorticoid excess: TUNEL in vertebral bone sections and spinal BMD by DEXA. The test is classed as in vivo, Male Swiss Webster mice. The following applies: prednisolone 2.1 mg/kg/day pellets, alendronate 0.75 mg/kg/d s.c., 56 days, mean ±SD. The source says:
To adjust for the difference in the metabolic rate in mice compared to that in humans, the daily glucocorticoid dose was divided by the metabolic weight, i.e. the weight in kg to the 3/4 power (Borchard, et al., 1992. Drug dosage in laboratory animals: a handbook. CRC Press, Inc., Boca Raton, Fla. 514 pp.; Kleiber, M. 1961. The fire of life: an introduction to animal energetics. New York). […] One control group received saline injections with placebo pellet implantation while another group received saline injections plus prednisolone pellets. Dual-energy X-ray absorptiometry (DEXA) was used to determine spinal bone mineral density (spinal BMD) at the end of the 56-day experiment, as previously described (Weinstein et al., 1998. J. Clin. Invest. 102:274-282).
Sections of vertebral bone (L1 to L5) were mounted on silane-coated glass slides (Scientific Device Lab, Inc., Des Plains, Ill.), deplasticized and incubated in 10 mM citrate buffer, pH 7.6, in a microwave oven at 98° C. for 5 minutes (Jilka, et al., 1998. J. Bone Miner. Res. 13:793-802). Slides were then incubated with 0.5% pepsin for 30 minutes at 37° C. Apoptotic cells were detected by the TUNEL reaction as described above using 0.15% CuSO4 for color enhancement of the diaminobenzidine in sections counterstained with 1% methyl green. The TUNEL reaction is noted within cell nuclei and the cells whose nuclei were clearly brown from the streptavidin-horse radish peroxidase conjugate instead of blue-green from the methyl green were interpreted as positive. Plastic-embledded sections of weaned rat mammary tissue were used as a positive control. Negative controls were made by omitting the transferase from the TUNEL reaction. Morphological changes characteristic of apoptosis were carefully examined to minimize ambiguity regarding the interpretation of results. […] Osteocytes were identified inside lacunae in mineralized bone (FIG. 11A). Osteoblasts were identified as cuboidal cells lining the osteoid-covered trabecular perimeter (FIG. 11B).

As to `CN(C)CCC(O)(P(=O)(O)O)P(=O)(O)O` [olpadronate], the “proportion of cells exhibiting chromatin condensation and/or nuclear fragmentation versus untreated” value in test [1] is “no significant differences”. Moreover, in the test with MLO-Y4 osteocytic cells, the “inhibition of glucocorticoid-induced apoptosis” value is “Comparable responses”. Also, in the test on osteoclast, the “antiresorptive activity / effect on osteoclast” value was “effective inhibitor of the osteoclast and of bone resorption”.

As for `COc1cccc(-c2cc(=O)c3ccccc3o2)c1N` [PD98059], in the test on MLO-Y4 osteocytic cells, the “effect on the prevention of MLO-Y4 cell apoptosis by sCT” value is recorded as “abolished”; the “effect on the anti-apoptotic effect of alendronate, IG-9402 and etidronate” value is on record as “abrogated the anti-apoptotic effect”. Besides, the “effect on bisphosphonate-induced phosphorylation of ERKs” value in the test with ERK1/2 is given as “abolished”.

As to `C[C@@H]1C[C@H]2[C@@H]3CCC4=CC(=O)C=C[C@]4(C)[C@@]3(F)[C@@H](O)C[C@]2(C)[C@@]1(O)C(=O)CO` [dexamethasone], in the test with osteocytic MLO-Y4 cells, the “% of TUNEL positive cells” value is reported as 11.87* %, the “Number of TUNEL positive cells” value was 66 and the “number of TUNEL negative cells” value amounted to 490. Also, in the test on MLO-Y4 osteocytic cells (MLO-Y4 cells), the “concentrations giving pro-apoptotic effects” value is on record as 10^−7-10^−5 M.

In the case of `NCCC(O)(P(=O)(O)O)P(=O)(O)O` [pamidronate], the “proportion of cells exhibiting chromatin condensation and/or nuclear fragmentation versus untreated” value in test [1] is given as “no significant differences”. Moreover, the “inhibition of glucocorticoid-induced apoptosis” value in the test on MLO-Y4 osteocytic cells is on record as “Comparable responses”.

On to `C[C@@]12CCC[C@H]1[C@@H]1CCc3cc(O)ccc3[C@H]1CC2` [estratriene-3-ol], for which, in test [2], the “anti-apoptotic effects on osteoblastic cells in vitro and osteocytic cells” value is listed as “potent anti-apoptotic effects”.

For the molecule `C[C@]12CC[C@@H]3c4ccc(O)cc4C[C@@H](CCCCCCCCC[S+]([O-])CCCC(F)(F)C(F)(F)F)[C@H]3[C@@H]1CC[C@@H]2O` (stereo partly drawn) [ICI 182780], in test [2], the “effect on the anti-apoptotic effects of the estrogen compounds” value is “diminished”.

`COc1cc([C@@H]2c3cc4c(cc3[C@@H](O[C@@H]3O[C@@H]5CO[C@@H](C)O[C@H]5[C@H](O)[C@H]3O)[C@H]3COC(=O)[C@H]23)OCO4)cc(OC)c1O` [etoposide]: in the test on MLO-Y4 osteocytic cells, the “percentage of cells stained with trypan blue (induction of apoptosis)” value is on record as “A similar effect was obtained”. Moreover, the “induction of apoptosis of osteoblastic cells” value in test [3] was “induced apoptosis”.

With `N#CC(=C(/N)Sc1ccccc1N)/C(C#N)=C(\N)Sc1ccccc1N` [U0126], in the test on MLO-Y4 osteocytic cells, the “effect on the prevention of MLO-Y4 cell apoptosis by sCT” value is recorded as “abolished”; the “effect on the anti-apoptotic effect of alendronate, IG-9402 and etidronate” value is reported as “abrogated the anti-apoptotic effect”. Besides, in the test on ERK1/2, the “effect on bisphosphonate-induced phosphorylation of ERKs” value was “abolished”.

For the molecule `C[C@]12CC[C@@H]3c4ccc(O)cc4CC[C@H]3[C@@H]1CC[C@@H]2O` [17β-estradiol], the “anti-apoptotic effects on osteoblastic cells in vitro and osteocytic cells” value in test [2] was “potent anti-apoptotic effects”.

As to “Asp-Glu-Val-Asp-aldehide (DEVD-aldehyde) [DEVD-CHO]”, the “prevention of the increase in cell membrane permeability detected by trypan blue” value in the test on MLO-Y4 osteocytic cells (50 nM DEVD-CHO 1 h before pro-apoptotic agents) is reported as “prevented”.

For the molecule `C[C@]12C=CC(=O)C=C1CC[C@@H]1[C@@H]2[C@@H](O)C[C@@]2(C)[C@H]1CC[C@]2(O)C(=O)CO` [prednisolone], the “Spinal BMD (% change)” value in test [4] (DEXA) is listed as −12.48 ± 3.77 % change. Besides, in test [4] (vertebral cancellous bone), the “Apoptotic osteoblasts (%)” value was 19.79 ± 5.17 % and the “Apoptotic osteocytes (%)” value worked out at 2.37 ± 0.87%.

With `C[C@]12CC[C@@H]3c4ccc(O)cc4CC[C@H]3[C@@H]1CC[C@H]2O` [17α-estradiol], in test [2], the “anti-apoptotic effects on osteoblastic cells in vitro and osteocytic cells” value is listed as “potent anti-apoptotic effects”.

B1: TNF-α: Recombinant murine TNF-α, an activator of death receptors (protein, UniProt P06804 80-235, looked up)
Tumor necrosis factor, …: LRSSSQNSSDKPVAHVVANHQVEEQLEWLSQRANALLANGMDLKDNQLVVPADGLYLVYSQVLFKGQGCPDYVLLTHTVSRFAISYQEKVNLLSAVKSPCPKDTPEGAELKPWYEPIYLGGVFQLEKGDQLSAEVNLPKYLDFAESGQVYFGVIAL
modifications: Tumor necrosis factor, soluble form
With B1, the “percentage of cells stained with trypan blue (induction of apoptosis)” value in the test with MLO-Y4 osteocytic cells is “A similar effect was obtained”. Besides, the “induction of apoptosis of osteoblastic cells” value in test [3] was “induced apoptosis”.
